Test results as given in patent publication US20080009435A1, “Synthetic methods for aplidine and new antitumoral derivatives, methods of making and using them” (Pharma Mar, S.A., a Spain corporation, priority 2000, published 2008).
Where two headings read alike, the source gives them in different places. *1 amine or outer side, *2 acyl side, *3 side chain or, on linkers, in order; H or OH if unused. Where a SMILES comes first, the peptide text is derived from it. Bridges are numbered along the chain shown (N, C = ends). [ ]: non-standard residue; d: D form. The star is where a group is joined. ξ: configuration not given here. X1 = CC[C@H](C)[C@@H](N[*:1])[C@@H](O)CC(=O)O[C@H](C(=O)[C@H](C)C(=O)[*:2])C(C)C; X2 = CC[C@H](C)[C@@H](N[*:1])[C@@H](O)CC(=O)[*:2]; X4 = CC(C)[C@H](N[*:1])C(=O)[C@H](C)C(=O)[*:2]; X3 = C[C@H](O[Si](C)(C)C(C)(C)C)C(=O)*; NMeY = CN[C@@H](Cc1ccc(O)cc1)C(=O)O; dNMeL = CN[C@H](CC(C)C)C(=O)O; Hiv = CC(C)[C@H](O)C(=O)O; Pyruvoyl = CC(=O)C(=O)*; Cbz = O=C(OCc1ccccc1)*; ξP = O=C(O)C1CCCN1

Experiments:
[1] = tested on: A549 human lung carcinoma; experiment: Cytotoxicity IC50 (after Berjeron et al)
Text: (§1) Methodology: after Berjeron et al, Biochem and Bioph Res. Comm., 1984, 121, 3, 848-854.

[2] = tested on: HT-29 human colon carcinoma; experiment: Cytotoxicity IC50 (after Berjeron et al)
Text: as §1

P388 Murine lymphoma = experiment: Cytotoxicity IC50 (after Berjeron et al)
Text: as §1

MEL-28 human melanoma = experiment: Cytotoxicity IC50 (after Berjeron et al)
Text: as §1

[3] = tested on: DU145 human prostate carcinoma; experiment: Cytotoxicity IC50 (after Berjeron et al); type: cell-based
Text: P388=Murine lymphoma. A549=human lung carcinoma. HT-29=human colon carcinoma. MEL-28=human melanoma. DU145=human prostate carcinoma
Chem. 2000, 65, 782-792. Their synthesis was published before their discovery (l): Org. […] A549=human lung carcinoma. HT-29=human colon carcinoma. MEL-28=human melanoma. DU145=human prostate carcinoma

tumor cells = experiment: In vitro antitumor activity; type: cell-based
[4] = Homo sapiens, A549, read-out: Cytotoxicity of aplidine derivatives IC50 (Molar) A549
[5] = Homo sapiens, HT-29, read-out: Cytotoxicity of aplidine derivatives IC50 (Molar) HT29
[6] = Mus musculus, P388, read-out: Cytotoxicity of aplidine derivatives IC50 (Molar) P388
[7] = Homo sapiens, SK-MEL-28, read-out: Cytotoxicity of aplidine derivatives IC50 (Molar) MEL28
[8] = read-out: Cytotoxicity of aplidine derivatives IC50 (Molar) A549, A549
[9] = read-out: Cytotoxicity of aplidine derivatives IC50 (Molar) HT29, HT29
[10] = read-out: Cytotoxicity of aplidine derivatives IC50 (Molar) P388, P388
[11] = read-out: Cytotoxicity of aplidine derivatives IC50 (Molar) MEL28, MEL28
[12] = DU145, read-out: Cytotoxicity of aplidine derivatives IC50 (Molar) DU145

Compound	IC50 [1, 4]	IC50 [2, 5]	IC50 [1, 8]	IC50 [2, 9]	also measured
CC[C@H](C)[C@H]1NC(=O)[C@@H](NC(=O)[C@@H](CC(C)C)N(C)C(=O)C2CCCN2C(=O)[C@H](C)O[Si](C)(C)C(C)(C)C)[C@@H](C)OC(=O)[C@H](Cc2ccc(OC)cc2)N(C)C(=O)[C@@H]2CCCN2C(=O)[C@H](CC(C)C)NC(=O)[C@H](C(C)C)NC(=O)C[C@@H]1O (stereo partly drawn) [9LSVPL2(L), [Val]^3-[L-Lac(OTBDMS)]^9-aplidine] (X3-[ξP][dNMeL]T[X2]VLP[NMeY](Me); ester 3-C)	10.2 nM	8.55 nM	–	–	–
C=C(C)C(=O)N1CCC[C@]12CCN([C@H](CC(C)C)C(=O)N[C@@H]1C(=O)N[C@H]([C@@H](C)CC)[C@@H](O)CC(=O)O[C@@H](C(C)C)C(=O)N[C@@H](CC(C)C)C(=O)N3CCC[C@H]3C(=O)N(C)[C@@H](Cc3ccc(OC)cc3)C(=O)O[C@@H]1C)C2=O [9SASHPL1]	93.9 nM	93.9 nM	–	–	–
CC[C@H](C)[C@H]1NC(=O)[C@@H](NC(=O)[C@@H](CC(C)C)N2CC[C@]3(CCCN3C(=O)OC(C)(C)C)C2=O)[C@@H](C)OC(=O)[C@H](Cc2ccc(OC)cc2)N(C)C(=O)[C@@H]2CCCN2C(=O)[C@H](CC(C)C)NC(=O)[C@@H](C)C(=O)[C@H](C(C)C)OC(=O)C[C@@H]1O [9SBSAPL1, [(5R)-1-(tert-buthoxycarbonyl)-7-[(1R)-1-carboxy-3-methylbutyl]-6-oxo-1,7-diazaspiro[4,4]nonane]^7-9-aplidine]	8.68 nM	8.68 nM	–	–	–
CC[C@H](C)[C@H]1NC(=O)[C@@H](NC(=O)[C@@H](CC(C)C)N2CC[C@]3(CCCN3C(=O)OC(C)(C)C)C2=O)[C@@H](C)OC(=O)[C@H](Cc2ccc(OC)cc2)N(C)C(=O)[C@@H]2CCCN2C(=O)[C@H](CC(C)C)NC(=O)[C@H](C(C)C)OC(=O)C[C@@H]1O [9SBSHPL1]	4.56 nM	4.56 nM	–	–	–
CC[C@H](C)[C@H]1NC(=O)[C@@H](NC(=O)[C@@H](CC(C)C)N2CC[C@]3(CCCN3C(=O)C(C)C)C2=O)[C@@H](C)OC(=O)[C@H](Cc2ccc(OC)cc2)N(C)C(=O)[C@@H]2CCCN2C(=O)[C@H](CC(C)C)NC(=O)[C@@H](C)C(=O)[C@H](C(C)C)OC(=O)C[C@@H]1O [9SISAPL1, [(5R)-1-(isobutiryl)-7-[(R)-1-carboxy-3-methylbutyl]-6-oxo-1,7-diazaspiro[4,4]nonane]^7-9-Aplidine]	89.1 nM	89.1 nM	–	–	–
CC[C@H](C)[C@H]1NC(=O)[C@@H](NC(=O)[C@@H](CC(C)C)N2CC[C@]3(CCCN3C(=O)C(C)C)C2=O)[C@@H](C)OC(=O)[C@H](Cc2ccc(OC)cc2)N(C)C(=O)[C@@H]2CCCN2C(=O)[C@H](CC(C)C)NC(=O)[C@H](C(C)C)OC(=O)C[C@@H]1O [9SISHPL1, [Hiv]^3-[(5R)-1-(tert-buthoxycarbonyl)-7-[(1R)-1-carboxy-3-methylbutyl]-6-oxo-1,7-diazaspiro[4,4]nonane]^7-9-aplidine]	93.8 nM	93.8 nM	–	–	–
CC[C@H](C)[C@H]1NC(=O)[C@@H](NC(=O)[C@@H](CC(C)C)N2CC[C@]3(CCCN3C(=O)C(C)=O)C2=O)[C@@H](C)OC(=O)[C@H](Cc2ccc(OC)cc2)N(C)C(=O)[C@@H]2CCCN2C(=O)[C@H](CC(C)C)NC(=O)[C@@H](C)C(=O)[C@H](C(C)C)OC(=O)C[C@@H]1O [9SPSAPL1, [(5R)-1-(pyruvyl)-7-[(1R)-1-carboxy-3-methylbutyl]-6-oxo-1,7-diazaspiro[4,4]nonane]^7-9-aplidine]	8.55 nM	8.9 nM	–	–	–
CC[C@H](C)[C@H]1NC(=O)[C@@H](NC(=O)[C@@H](CC(C)C)N2CC[C@]3(CCCN3C(=O)C(C)=O)C2=O)[C@@H](C)OC(=O)[C@H](Cc2ccc(OC)cc2)N(C)C(=O)[C@@H]2CCCN2C(=O)[C@H](CC(C)C)NC(=O)[C@H](C(C)C)OC(=O)C[C@@H]1O [9SPSHPL1, [Hiv]^3-[(5R)-1-(pyruvyl)-7-[(1R)-1-carboxy-3-methylbutyl]-6-oxo-1,7-diazaspiro[4,4]nonane]^7-9-aplidine]	93.8 nM	93.8 nM	–	–	–
CC[C@H](C)[C@H]1NC(=O)[C@@H](NC(=O)[C@@H](CC(C)C)NC)[C@@H](C)OC(=O)[C@H](Cc2ccc(OC)cc2)N(C)C(=O)[C@@H]2CCCN2C(=O)[C@H](CC(C)C)NC(=O)[C@@H](C)C(=O)[C@H](C(C)C)OC(=O)C[C@@H]1O [SAPL2, Didemnin A, reference compound] (H-[dNMeL]T[X1]LP[NMeY](Me); ester 2-C)	4.24 nM	8.48 nM	–	–	IC50 (P388 Murine lymphoma; [6]): 5.3 nM; IC50 (MEL-28 human melanoma; [7]): 1.13 nM
CC[C@H](C)[C@H]1NC(=O)[C@@H](NC(=O)[C@@H](CC(C)C)N(C)C(=O)OCc2ccccc2)[C@@H](C)OC(=O)[C@H](Cc2ccc(OC)cc2)N(C)C(=O)[C@@H]2CCCN2C(=O)[C@H](CC(C)C)NC(=O)[C@@H](C)C(=O)[C@H](C(C)C)OC(=O)C[C@@H]1O [SAPL3, Z-Didemnin A] (Cbz-[dNMeL]T[X1]LP[NMeY](Me); ester 2-C)	2.32 nM	4.64 nM	–	–	IC50 (P388 Murine lymphoma; [6]): 9.3 nM; IC50 (MEL-28 human melanoma; [7]): 4.64 nM
CC[C@H](C)[C@H]1NC(=O)[C@@H](NC(=O)[C@@H](CC(C)C)NC)[C@@H](C)OC(=O)[C@H](Cc2ccc(OC)cc2)N(C)C(=O)[C@@H]2CCCN2C(=O)[C@H](CC(C)C)NC(=O)[C@H](C(C)C)OC(=O)C[C@@H]1O [SHPL2, [Hiv]^3-Didemnin A] (H-[dNMeL]T[X2][Hiv]LP[NMeY](Me); ester 2-C)	1.13 nM	1.13 nM	–	–	IC50 (P388 Murine lymphoma; [6]): 1.1 nM; IC50 (MEL-28 human melanoma; [7]): 1.13 nM
CC[C@H](C)[C@H]1NC(=O)[C@@H](NC(=O)[C@@H](CC(C)C)N(C)C(=O)[C@@H]2CCCN2C(=O)C(C)=O)[C@@H](C)OC(=O)[C@H](Cc2ccc(OC)cc2)N(C)C(=O)[C@@H]2CCCN2C(=O)[C@H](CC(C)C)NC(=O)[C@@H](C)C(=O)[C@H](C(C)C)NC(=O)C[C@@H]1O [SNPL1, [Aip]^3-Aplidine] (Pyruvoyl-P[dNMeL]T[X2][X4]LP[NMeY](Me); ester 3-C)	–	–	–	–	IC50 ([1]; Homo sapiens, A549, read-out: Cytotoxicity of [aa3]-aplidine Congeners IC50 (Molar) A549): 0.901 nM; IC50 ([2]; Homo sapiens, HT-29, read-out: Cytotoxicity of [aa3]-aplidine Congeners IC50 (Molar) HT29): 0.901 nM
CC[C@H](C)[C@H]1NC(=O)[C@@H](NC(=O)[C@@H](CC(C)C)NC)[C@@H](C)OC(=O)[C@H](Cc2ccc(OC)cc2)N(C)C(=O)[C@@H]2CCCN2C(=O)[C@H](CC(C)C)NC(=O)[C@@H](C)C(=O)[C@H](C(C)C)NC(=O)C[C@@H]1O [SNPL2, [Aip]^3-Didemnin A] (H-[dNMeL]T[X2][X4]LP[NMeY](Me); ester 2-C)	10.6 nM	10.6 nM	–	–	–
CC[C@H](C)[C@H]1NC(=O)[C@@H](NC(=O)[C@@H](CC(C)C)N(C)C(=O)OCc2ccccc2)[C@@H](C)OC(=O)[C@H](Cc2ccc(OC)cc2)N(C)C(=O)[C@@H]2CCCN2C(=O)[C@H](CC(C)C)NC(=O)[C@@H](C)C(=O)[C@H](C(C)C)NC(=O)C[C@@H]1O [SNPL3, [Aip]^3 Z-Didemnin A] (Cbz-[dNMeL]T[X2][X4]LP[NMeY](Me); ester 2-C)	0.0929 nM	0.0929 nM	–	–	–
CC[C@H](C)[C@H]1NC(=O)[C@@H](NC(=O)[C@@H](CC(C)C)NC)[C@@H](C)OC(=O)[C@H](Cc2ccc(OC)cc2)N(C)C(=O)[C@@H]2CCCN2C(=O)[C@H](CC(C)C)NC(=O)[C@H](C(C)C)NC(=O)C[C@@H]1O [SVPL2, [Val]^3-Didemnin A] (H-[dNMeL]T[X2]VLP[NMeY](Me); ester 2-C)	1.13 nM	1.13 nM	–	–	IC50 (P388 Murine lymphoma; [6]): 1.1 nM; IC50 (MEL-28 human melanoma; [7]): 1.13 nM; IC50 ([3]; Homo sapiens, DU-145, read-out: Cytotoxicity of aplidine derivatives IC50 (Molar) DU145): 1.13 nM
[Gly]^8-[coumarin]^9-didemnin A [8G9CSAPL1]	–	–	4.26 nM	4.26 nM	–
[Hiv]^3 Z-Didemnin A [SHPL3]	–	–	4.9 nM	4.9 nM	IC50 (P388 Murine lymphoma; [10]): 4.9 nM; IC50 (MEL-28 human melanoma; [11]): 4.9 nM; IC50 [3, 12]: 4.9 nM
[Hiv]^3-[Ala]^9 aplidine [9ASHPL1]	–	–	0.916 nM	0.916 nM	–
[Hiv]^3-[D-Lac(OTBDMS)]^9-aplidine [9LSHPL2(D)]	–	–	85.5 nM	85.5 nM	–
[Hiv]^3-[NVa-Pro]^9-aplidine [9NVSHPL1]	–	–	0.923 nM	0.923 nM	–
[Hiv]^3-[Pro]^8-didemnin A [8PSHPL1]	–	–	1.01 nM	1.01 nM	–
[Hiv]^3-[Z-Ala]^9-aplidine [9ZASHPL2]	–	–	4.21 nM	4.21 nM	–
[Hiv]^3-[Z-NVa-Pro]^9-aplidine [9NVSHPL2]	–	–	8.22 nM	8.22 nM	–
[MeVal]^3-aplidine	–	–	–	–	in vitro antitumor activity (tumor cells): high level of in vitro antitumor activity
[NVa-Pro]^9-aplidine [9NVSAPL1]	–	–	0.439 nM	0.439 nM	–
[Val]^3 Z-Didemnin A [SVPL3]	–	–	0.98 nM	0.98 nM	IC50 (P388 Murine lymphoma; [10]): 0.98 nM; IC50 (MEL-28 human melanoma; [11]): 0.98 nM; IC50 [3, 12]: 0.98 nM
[ZNVa-Pro]^9-aplidine [9NVSAPL2]	–	–	3.93 nM	3.93 nM	IC50 (P388 Murine lymphoma; [10]): 7.9 nM; IC50 (MEL-28 human melanoma; [11]): 3.93 nM; IC50 [3, 12]: 3.93 nM
[coumarin]^8-didemnin A [8CSAPL1]	–	–	0.941 nM	0.941 nM	–
